Experimental findings from patent US7402606B2, “Derivatives of 1-(oxoaminoacetyl) pentylcarbamate as cathepsin K inhibitors for the treatment of bone loss” (SmithKline Beecham Corporation, priority 2002, dated 2008) are described below.

For the assay, the target named is T1, human cathepsin K (Homo sapiens, UniProt P43235).
T1 construct: The proform of cathepsin K was converted to mature cathepsin K by brief exposure to pH 4; made in house; host or cells: baculovirus; Trichoplusia ni High Five cells (virus raised in Sf-9)
T1 sequence (P43235 115-329): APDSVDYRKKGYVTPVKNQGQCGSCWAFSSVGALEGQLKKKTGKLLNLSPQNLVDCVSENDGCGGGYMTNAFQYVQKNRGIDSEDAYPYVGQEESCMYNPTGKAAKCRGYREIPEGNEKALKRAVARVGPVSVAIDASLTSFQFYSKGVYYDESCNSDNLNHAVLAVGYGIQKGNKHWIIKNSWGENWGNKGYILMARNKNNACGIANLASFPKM
As to the kind of experiment: Cathepsin K inhibition assay, human recombinant enzyme, fluorogenic substrate Cbz-Phe-Arg-AMC. The format is biochemical. As to conditions: Table 1, human cathepsin K; read-out: h Cat K IC50. An outline of the steps:
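Recombinant human cathepsin K (baculovirus/insect-cell proform, activated at pH 4 with 5 mM L-cysteine) assayed with 10 μM Cbz-Phe-Arg-AMC, 10% DMSO, 30 °C.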
Turning to `CCCC[C@H](NC(=O)O[C@@H]1CN(C(=O)c2cc3ccccc3n2C)CC1(C)C)C(=O)C(=O)N[C@H](C)c1ccccc1` [Example 28, (3S)-4,4-Dimethyl-1-[(1-methyl-1H-indol-2-yl)carbonyl]pyrrolidinyl (1S)-1-(oxo{[(1R)-1-phenylethyl]amino}acetyl)pentylcarbamate], the 50% inhibitory concentration (IC50) lay in the range of 10 to 100 nM.
As for `CCCC[C@H](NC(=O)O[C@@H]1CN(C(=O)Oc2ccc(-c3csnn3)cc2)CC1(C)C)C(=O)C(=O)N[C@H](C)c1ccccc1` [Example 61, 4-(1,2,3-Thiadiazol-4-yl)phenyl (4S)-3,3-dimethyl-4-[({[(1S)-1-(oxo{[(1R)-1-phenylethyl]amino}acetyl)pentyl]amino}carbonyl)oxy]-1-pyrrolidinecarboxylate], the half-inhibitory concentration (IC50) fell in the range of 10 to 100 nM.
To `CCCC[C@H](NC(=O)O[C@@H]1CN(C(=O)c2nn(-c3ccccc3)nc2C)CC1(C)C)C(=O)C(=O)N[C@H](C)c1ccccc1` [Example 15, (3S)-4,4-Dimethyl-1-[(5-methyl-2-phenyl-2H-1,2,3-triazol-4-yl)carbonyl]pyrrolidinyl (1S)-1-(oxo{[(1R)-1-phenylethyl]amino}acetyl)pentylcarbamate] belongs 1 to 10 nM; to `CCCC[C@H](NC(=O)O[C@@H]1CN(C(=O)NCCc2ccccc2)CC1(C)C)C(=O)C(=O)N[C@H](C)c1ccccc1` [Example 65, (3S)-4,4-Dimethyl-1-{[(2-phenylethyl)amino]carbonyl}pyrrolidinyl (1S)-1-(oxo{[(1R)-1-phenylethyl]amino}acetyl)pentylcarbamate], 1 to 10 nM.
To `CCCC[C@H](NC(=O)O[C@@H]1CN(C(=O)c2cnc3ccccc3c2)CC1(C)C)C(=O)C(=O)N[C@H](C)c1ccccc1` [Example 29, (3S)-4,4-Dimethyl-(3-quinolinylcarbonyl)pyrrolidinyl 1-(oxo{[(1R)-1-phenylethyl]amino}acetyl)pentylcarbamate] belongs 10 to 100 nM; to `CCCC[C@H](NC(=O)O[C@@H]1CN(S(=O)(=O)Cc2ccccc2)CC1(C)C)C(=O)C(=O)N[C@H](C)c1ccccc1` [Example 78, (3S)-1-(Benzylsulfonyl)-4,4-dimethylpyrrolidinyl (1S)-1-(oxo{[(1R)-1-phenylethyl]amino}acetyl)pentylcarbamate], 10 to 100 nM; to `CCCC[C@H](NC(=O)O[C@@H]1CN(C(=O)Cc2csc(-c3cnccn3)n2)CC1(C)C)C(=O)C(=O)N[C@H](C)c1ccccc1` [Example 38, (3S)-4,4-Dimethyl-1-{[2-(2-pyrazinyl)-1,3-thiazol-4-yl]acetyl-}pyrrolidinyl (1S)-1-(oxo{[(1R)-1-phenylethyl]amino}acetyl)pentylcarbamate], 10 to 100 nM.
With `CCCC[C@H](NC(=O)O[C@@H]1CN(C(=O)c2cc(C(C)(C)C)nn2C)CC1(C)C)C(=O)C(=O)N[C@H](C)c1ccccc1` [Example 14, (3S)-1-[(3-tert-Butyl-1-methyl-1H-pyrazol-5-yl)carbonyl]-4,4-dimethylpyrrolidinyl (1S)-1-(oxo{[(1R)-1-phenylethyl]amino}acetyl)pentylcarbamate], the concentration for half-maximal inhibition (IC50) is 1 to 10 nM.
For the molecule `CCCC[C@H](NC(=O)O[C@@H]1CN(C(=O)Nc2ccccc2)CC1(C)C)C(=O)C(=O)N[C@H](C)c1ccccc1` [Example 63, (3S)-1-(Anilinocarbonyl)-4,4-dimethylpyrrolidinyl (1S)-1-(oxo{[(1R)-1-phenylethyl]amino}acetyl)pentylcarbamate], the concentration for half-maximal inhibition (IC50) lay in the range of 1 to 10 nM.
`CCCC[C@H](NC(=O)O[C@@H]1CN(C(=O)Oc2ccc(Oc3ccccc3)cc2)CC1(C)C)C(=O)C(=O)N[C@H](C)c1ccccc1` [Example 58, 4-Phenoxyphenyl (4S)-3,3-dimethyl-4-[({[(1S)-1-(oxo{[(1R)-1-phenylethyl]amino}acetyl)pentyl]amino}carbonyl)oxy]-1-pyrrolidinecarboxylate]: the IC50 lay within 10 to 100 nM.
For the molecule `CCCC[C@H](NC(=O)O[C@@H]1CN(C(=O)NC2CCCCC2)CC1(C)C)C(=O)C(=O)N[C@H](C)c1ccccc1` [Example 68, (3S)-1-[(Cyclohexylamino)carbonyl]-4,4-dimethylpyrrolidinyl (1S)-1-(oxo{[(1R)-1-phenylethyl]amino}acetyl)pentylcarbamate], the 50% inhibitory concentration (IC50) was 10 to 100 nM.
Turning to `CCCC[C@H](NC(=O)O[C@@H]1CN(C(=O)OCCN2CCCC2=O)CC1(C)C)C(=O)C(=O)N[C@H](C)c1ccccc1` [Example 47, 2-(2-Oxo-1-pyrrolidinyl)ethyl (4S)-3,3-dimethyl-4-[({[(1S)-1-(oxo{[(1R)-1-phenylethyl]amino}acetyl)pentyl]amino}carbonyl)oxy]-1-pyrrolidinecarboxylate], the IC50 was 10 to 100 nM.
As for `CCCC[C@H](NC(=O)O[C@@H]1CN(S(=O)(=O)c2ccc3c(c2)OCCO3)CC1(C)C)C(=O)C(=O)N[C@H](C)c1ccccc1` [Example 80, (3S)-1-(2,3-Dihydro-1,4-benzodioxin-6-ylsulfonyl)-4,4-dimethylpyrrolidinyl (1S)-1-(oxo{[(1R)-1-phenylethyl]amino}acetyl)pentylcarbamate], the concentration for half-maximal inhibition (IC50) fell in the range of 10 to 100 nM.
To `CCCC[C@H](NC(=O)O[C@@H]1CN(C(=O)c2ccno2)CC1(C)C)C(=O)C(=O)N[C@H](C)c1ccccc1` [Example 12] belongs 1 to 10 nM; to `CCCC[C@H](NC(=O)O[C@@H]1CN(C(=O)OCc2ccccc2)CC1(C)C)C(=O)C(=O)N[C@H](C)c1ccccc1` [Example 44, Benzyl (4S)-3,3-dimethyl-4-[({[(1S)-1-(oxo{[(1R)-1-phenylethyl]amino}acetyl)pentyl]amino}carbonyl)oxy]-1-pyrrolidinecarboxylate], 10 to 100 nM.
Turning to `CCCC[C@H](NC(=O)OC1C(=O)N(C(=O)OCc2ccccc2)CC1(C)C)C(=O)C(=O)N[C@H](C)c1ccccc1` (stereo partly drawn) [Example 5, Benzyl 4,4-dimethyl-2-oxo-3-[({[(1S)-1-(oxo{[(1R)-1-phenylethyl]amino}acetyl)pentyl]amino}carbonyl)oxy]-1-pyrrolidinecarboxylate], the 50% inhibitory concentration (IC50) was in the range of 10 to 100 nM.
Turning to `CCCC[C@H](NC(=O)O[C@@H]1CN(C(=O)Nc2cc(F)ccc2C)CC1(C)C)C(=O)C(=O)N[C@H](C)c1ccccc1` [Example 72, (3S)-1-[(5-Fluoro-2-methylanilino)carbonyl]-4,4-dimethylpyrrolidinyl (1S)-1-(oxo{[(1R)-1-phenylethyl]amino}acetyl)pentylcarbamate], the IC50 was 1 to 10 nM.
As for `CCCCC(NC(=O)O[C@@H]1CN(Cc2ccccc2)CC1(C)C)C(=O)C(=O)N[C@H](C)c1ccccc1` (stereo partly drawn) [Example 8, (3S)-1-Benzyl-4,4-dimethylpyrrolidinyl 1-(oxo{[(1R)-1-phenylethyl]amino}acetyl)pentylcarbamate], the figure is 10 to 100 nM.
As for `CCCC[C@H](NC(=O)O[C@@H]1CN(C(=O)Cc2ccccc2)CC1(C)C)C(=O)C(=O)N[C@H](C)c1ccccc1` [Example 11, (3S)-4,4-Dimethyl-1-(phenylacetyl)pyrrolidinyl (1S)-1-(oxo{[(1R)-1-phenylethyl]amino}acetyl)pentylcarbamate], the half-inhibitory concentration (IC50) is 1 to 10 nM.
As to `CCCC[C@H](NC(=O)OC1C(=O)OC[C@]1(C)CC)C(=O)C(=O)N[C@H](C)c1ccccc1` (stereo partly drawn) [Example 3, (4S)-4-ethyl-4-methyl-2-oxotetrahydro-3-furanyl (1S)-1-(oxo{[(1R)-1-phenylethyl]amino}acetyl)pentylcarbamate], the IC50 fell in the range of 1 to 10 nM.
As to `CCCC[C@H](NC(=O)O[C@@H]1C(=O)OCC1(C)C)C(=O)C(=O)N[C@H](C)c1ccccc1` [Example 1, (3S)-4,4-dimethyl-2-oxotetrahydro-3-furanyl (1S)-1-(oxo([(1R)-1-phenylethyl]amino}acetyl)pentylcarbamate], the IC50 is 1 to 10 nM.
